In the oligonucleotide strings, read from the 5' end, every base follows the letter of its sugar. An asterisk marks phosphorothioate; unmarked linkages are phosphodiester. Other units and linkages are bracketed, terminal groups are in braces. A string of capitals states the bases alone. e = 2'-O-(2-methoxyethyl) (MOE); [5mC] = 5-methylcytosine; d = 2'-deoxy (DNA)
Tests used:
Type in all cases: cell-based
human Factor 7 mRNA [1] = experiment: Dose-dependent antisense inhibition of human Factor 7 in HepB3 cells, transfection with lipofectin; conditions: lipofectin, HepB3 cells, 16 hours
Experimental: Cells were plated at a density of 4,000 cells per well and treated with lipofectin reagent with 3.125 nM, 6.25 nM, 12.5 nM, 25 nM, 50 nM, and 100 nM concentrations of antisense oligonucleotide, as indicated in Table 3. After a treatment period of approximately 16 hours, RNA was isolated from the cells and Factor 7 mRNA levels were measured by real-time RT-PCR, as described herein. Human Factor 7 primer probe set RTS 2927 (forward sequence: […], incorporated herein as SEQ ID NO: 164; reverse sequence: […], incorporated herein as SEQ ID NO: 165; probe sequence: TGGGTGGTCTCCGCGGCCX, incorporated herein as SEQ ID NO: 166) was used to measure mRNA levels. Factor 7 mRNA levels were adjusted according to total RNA content as measured by RIBOGREEN®. Results are presented as percent inhibition of Factor 7, relative to untreated control cells.
Cells were plated at a density of 4,000 cells per well and transfected using lipofectin reagent with 6.25 nM, 12.5 nM, 25.0 nM, 50.0 nM, and 100.0 nM concentrations of antisense oligonucleotide, as indicated in Table 7. After a treatment period of approximately 16 hours, RNA was isolated from the cells and Factor 7 mRNA levels were measured by real-time RT-PCR, as described herein. Human Factor 7 primer probe set RTS 2927 was used to measure mRNA levels. Factor 7 mRNA levels were adjusted according to total RNA content as measured by RIBOGREEN®. Results are presented as percent inhibition of Factor 7, relative to untreated control cells.
(§1) Cells were plated at a density of 4,000 cells per well and transfected using lipofectin reagent with 3.125 nM, 6.25 nM, 12.5 nM, 25 nM, 50 nM, and 100 nM concentrations of antisense oligonucleotide, as specified in Table 14. After a treatment period of approximately 16 hours, RNA was isolated from the cells and Factor 7 mRNA levels were measured by quantitative real-time PCR. Human Factor 7 primer probe set RTS 2927 was used to measure mRNA levels. Factor 7 mRNA levels were adjusted according to total RNA content, as measured by RIBOGREEN®. Results are presented as percent inhibition of Factor 7, relative to untreated control cells.

human Factor 7 mRNA [2] = experiment: Antisense inhibition of human Factor 7 mRNA in HepB3 cells, lipofectin, 50 nM, real-time RT-PCR; conditions: HepB3 cells
In short: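 HepB3 cells were transfected by lipofectin with 50 nM antisense oligonucleotide and harvested after about 24 h. Factor 7 mRNA was measured by real-time RT-PCR (primer probe set RTS 2927 in some runs), normalized to RIBOGREEN total RNA, and reported as percent inhibition versus untreated control.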

human Factor 7 mRNA [3] = experiment: Dose-dependent antisense inhibition of human Factor 7 in HepB3 cells, transfection with electroporation
Experimental: as §1, with “The gapmers were also transfected via electroporation and their dose-dependent inhibition of human Factor 7 mRNA was measured. Cells” for “Cells”, “20,000” for “4,000”, “via electroporation” for “using lipofectin reagent”, “μM,” for “nM,”, “μM” for “nM”, “15.” for “14.”
Cells were plated at a density of 20,000 cells per well and transfected via electroporation with 3.125 μM, 6.25 μM, 12.5 μM, 25 μM, 50 μM, and 100 μM concentrations of antisense oligonucleotide, as specified in Table 16. After a treatment period of approximately 16 hours, RNA was isolated from the cells and human Factor 7 mRNA levels were measured by quantitative real-time PCR. Human Factor 7 primer probe set RTS 2927 was used to measure mRNA levels. Factor 7 mRNA levels were adjusted according to total RNA content, as measured by RIBOGREEN®. Results are presented as percent inhibition of Factor 7, relative to untreated control cells.

human Factor 7 mRNA [4] = experiment: Inhibition of human Factor 7 mRNA by 2-10-2 MOE shortmers in HepB3 cells, electroporation, 1,000 nM; conditions: electroporation, 1,000 nM oligonucleotide, approximately 24 hours, relative to untreated control cells
In short: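 14-mer 2-10-2 2′-MOE gapmers, full phosphorothioate, 5-methylcytidines, electroporated at 1,000 nM into HepB3 cells (20,000/well). After ~24 h, mRNA quantified by real-time RT-PCR, normalized to RIBOGREEN total RNA; percent inhibition relative to untreated cells.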

[5] = gapmers targeted to nucleobases 15188 to 15211 of SEQ ID NO: 1 (Table 13)
[6] = 3.125 μM, 16 hours (Example 7, Table 15)
[7] = 3.125 μM, 16 hours (Example 8, Table 16)
[8] = 6.25 μM, 16 hours (Example 7, Table 15)
[9] = 6.25 μM, 16 hours (Example 8, Table 16)
[10] = 12.5 μM, 16 hours (Example 7, Table 15)
[11] = 12.5 μM, 16 hours (Example 8, Table 16)
[12] = 25 μM, 16 hours (Example 7, Table 15)
[13] = 25 μM, 16 hours (Example 8, Table 16)
[14] = 50 μM, 16 hours (Example 7, Table 15)
[15] = 50 μM, 16 hours (Example 8, Table 16)
[16] = 100 μM, 16 hours (Example 7, Table 15)
[17] = 100 μM, 16 hours (Example 8, Table 16)

Substance	percent inhibition of Factor 7 mRNA, relative to untreated control cells (human Factor 7 mRNA [1]; 3.125 nM)	percent inhibition of Factor 7 mRNA, relative to untreated control cells (human Factor 7 mRNA [1]; 12.5 nM)	percent inhibition of Factor 7 mRNA, relative to untreated control cells (human Factor 7 mRNA [1]; 25 nM)	percent inhibition of Factor 7 mRNA, relative to untreated control cells (human Factor 7 mRNA [1]; 50 nM)	percent inhibition of Factor 7 mRNA, relative to untreated control cells (human Factor 7 mRNA [1]; 100 nM)	percent inhibition of Factor 7 mRNA, relative to untreated control cells (human Factor 7 mRNA [1])	% Inhibition of human Factor 7 mRNA levels (human Factor 7 mRNA [2]; [5])	percent inhibition of Factor 7 mRNA, relative to untreated control cells (human Factor 7 mRNA [3]; [6])	percent inhibition of Factor 7 mRNA, relative to untreated control cells (human Factor 7 mRNA [3]; [7])	percent inhibition of Factor 7 mRNA, relative to untreated control cells (human Factor 7 mRNA [3]; [8])	percent inhibition of Factor 7 mRNA, relative to untreated control cells (human Factor 7 mRNA [3]; [9])	percent inhibition of Factor 7 mRNA, relative to untreated control cells (human Factor 7 mRNA [3]; [10])	percent inhibition of Factor 7 mRNA, relative to untreated control cells (human Factor 7 mRNA [3]; [11])	percent inhibition of Factor 7 mRNA, relative to untreated control cells (human Factor 7 mRNA [3]; [12])	percent inhibition of Factor 7 mRNA, relative to untreated control cells (human Factor 7 mRNA [3]; [13])	percent inhibition of Factor 7 mRNA, relative to untreated control cells (human Factor 7 mRNA [3]; [14])	percent inhibition of Factor 7 mRNA, relative to untreated control cells (human Factor 7 mRNA [3]; [15])	percent inhibition of Factor 7 mRNA, relative to untreated control cells (human Factor 7 mRNA [3]; [16])	percent inhibition of Factor 7 mRNA, relative to untreated control cells (human Factor 7 mRNA [3]; [17])	further results
422086 (antisense eT*eG*e[5mC]*eA*eT*dG*dG*dT*dG*dA*dT*dG*d[5mC]*dT*dT*e[5mC]*eT*eG*eA*eA) [compound 422086]	8%	46%	65%	83%	90%	26%	81%	20%	25%	34%	48%	44%	74%	63%	82%	75%	86%	84%	90%	–
422087 (antisense e[5mC]*eA*eT*eG*e[5mC]*dA*dT*dG*dG*dT*dG*dA*dT*dG*d[5mC]*eT*eT*e[5mC]*eT*eG) [compound 422087]	14%	51%	73%	83%	90%	24%	83%	22%	19%	26%	38%	48%	66%	57%	75%	72%	80%	80%	87%	–
422096 (antisense eA*eG*eA*e[5mC]*eA*dA*dT*dG*dG*dT*d[5mC]*dA*dG*dG*dG*e[5mC]*eT*eG*eG*eT) [compound 422096]	17%	43%	60%	68%	82%	23%	–	26%	–	30%	–	46%	–	50%	–	62%	–	85%	–	% Inhibition of human Factor 7 mRNA levels (human Factor 7 mRNA [2]; gapmers targeted to nucleobases 11830 to 11869 of SEQ ID NO: 1 (Table 9)): 76%
422130 (antisense eG*e[5mC]*e[5mC]*eT*eG*dA*dG*dG*d[5mC]*d[5mC]*dA*dG*d[5mC]*dA*dG*eA*eT*e[5mC]*eA*e[5mC]) [compound 422130]	4%	34%	59%	77%	85%	15%	–	28%	14%	29%	24%	59%	61%	61%	68%	73%	82%	86%	88%	% Inhibition of human Factor 7 mRNA levels (human Factor 7 mRNA [2]; gapmers targeted to nucleobases 14707 to 14732 of SEQ ID NO: 1 (Table 11)): 79%
435845 (antisense eG*e[5mC]*dT*d[5mC]*dA*dT*dG*dG*d[5mC]*dA*dG*dA*e[5mC]*eA) [compound 435845]	–	–	–	–	–	–	–	–	–	–	–	–	–	–	–	–	–	–	–	% inhibition of human Factor 7 mRNA (human Factor 7 mRNA [4]): 21%
